From patent US20230085307A1, “PYRIDAZINONE COMPOUND AND HERBICIDE” (NISSAN CHEMICAL CORPORATION, priority 2019, published 2023)

Key:
[1] = system: late watergrass; assay: Test Example 1: herbicidal activity, application before weed generation under submerged conditions (Table 16, symbol A); assay type: in vivo, late watergrass (Echinochloa oryzicola); details: 320 g/ha applied herbicide
In short: (§1)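 Submerged Wagner pots (alluvial soil, 4 cm water) sown with weed seeds and planted with 2.5-leaf rice seedlings; emulsifiable concentrate diluted in water applied to water surface on sowing day. Held in greenhouse at 25-30 °C; injury scored 0-5 by herbicidal rate after three weeks.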

[2] = system: Japanese bulrush; assay: Test Example 1: herbicidal activity, application before weed generation under submerged conditions (Table 16, symbol B); assay type: in vivo, Japanese bulrush (Schoenoplectus juncoides); details: 320 g/ha applied herbicide
In short: as §1

[3] = system: oval-leafed pondweed; assay: Test Example 1: herbicidal activity, application before weed generation under submerged conditions (Table 16, symbol C); assay type: in vivo, oval-leafed pondweed (Monochoria vaginalis); details: 320 g/ha applied herbicide
In short: as §1

[4] = system: barnyard grass; assay: Test Example 3: herbicidal effect by foliage application, Wagner pot (Table 18, symbol H); assay type: in vivo, barnyard grass (Echinochloa crus-galli); details: amount of applied herbicide 320 g/ha
In short: (§2)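 Plants were sown in alluvial soil held under 0.1–0.5 cm standing water and grown 14 days in a greenhouse at 25–30 °C. An emulsifiable formulation, water-diluted to the set dose, was then sprayed onto the foliage, and effects were scored three weeks later using previously defined criteria.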

[5] = system: Chinese sprangletop; assay: Test Example 3: herbicidal effect by foliage application, Wagner pot (Table 18, symbol D); assay type: in vivo, chinese sprangletop (Leptochloa chinensis); details: amount of applied herbicide 320 g/ha
In short: as §2

[6] = system: rice flat sedge; assay: Test Example 3: herbicidal effect by foliage application, Wagner pot (Table 18, symbol E); assay type: in vivo, rice flat sedge (Cyperus iria); details: amount of applied herbicide 320 g/ha
In short: as §2

[7] = system: southern crabgrass; assay: Test Example 4: herbicidal effect by soil treatment (Table 19, symbol F); assay type: in vivo, southern crabgrass (Digitaria ciliaris); details: amount of applied herbicide 320 g/ha
In short: (§3)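 Three weeks of greenhouse growth at 25° C. to 30° C. followed a uniform surface spray of water-diluted emulsion at a predetermined herbicide amount. Seeds had been sown beforehand under about 1.5 cm of sterilized diluvial soil. Grading followed criteria set out in an earlier test.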

[8] = system: green foxtail; assay: Test Example 4: herbicidal effect by soil treatment (Table 19, symbol G); assay type: in vivo, green foxtail (Setaria viridis); details: amount of applied herbicide 320 g/ha
In short: as §3

[9] = system: barnyard grass; assay: Test Example 4: herbicidal effect by soil treatment (Table 19, symbol H); assay type: in vivo, barnyard grass (Echinochloa crus-galli); details: amount of applied herbicide 320 g/ha
In short: as §3

[10] = system: wild oat; assay: Test Example 4: herbicidal effect by soil treatment (Table 19, symbol I); assay type: in vivo, wild oat (Avena fatua); details: amount of applied herbicide 320 g/ha
In short: as §3

[11] = system: blackgrass; assay: Test Example 4: herbicidal effect by soil treatment (Table 19, symbol J); assay type: in vivo, blackgrass (Alopecurus myosuroides); details: amount of applied herbicide 320 g/ha
In short: as §3

[12] = system: Italian ryegrass; assay: Test Example 4: herbicidal effect by soil treatment (Table 19, symbol K); assay type: in vivo, Italian ryegrass (Lolium multiflorum); details: amount of applied herbicide 320 g/ha
In short: as §3

[13] = system: windgrass; assay: Test Example 4: herbicidal effect by soil treatment (Table 19, symbol L); assay type: in vivo, windgrass (Apera spica-venti); details: amount of applied herbicide 320 g/ha
In short: as §3

[14] = system: velvetleaf; assay: Test Example 4: herbicidal effect by soil treatment (Table 19, symbol M); assay type: in vivo, velvetleaf (Abutilon theophrasti); details: amount of applied herbicide 320 g/ha
In short: as §3

[15] = system: redroot pigweed; assay: Test Example 4: herbicidal effect by soil treatment (Table 19, symbol N); assay type: in vivo, redroot pigweed (Amaranthus retroflexus); details: amount of applied herbicide 320 g/ha
In short: as §3

[16] = system: lambsquarters; assay: Test Example 4: herbicidal effect by soil treatment (Table 19, symbol O); assay type: in vivo, lambsquarters (Chenopodium album); details: amount of applied herbicide 320 g/ha
In short: as §3

[17] = system: chickweed; assay: Test Example 4: herbicidal effect by soil treatment (Table 19, symbol P); assay type: in vivo, common chickweed (Stellaria media); details: amount of applied herbicide 320 g/ha
In short: as §3

[18] = system: persian speedwell; assay: Test Example 4: herbicidal effect by soil treatment (Table 19, symbol R); assay type: in vivo, Persian speedwell (Veronica persica); details: amount of applied herbicide 320 g/ha
In short: as §3

[19] = system: southern crabgrass; assay: Test Example 5: herbicidal effect by foliage application, plastic box (Table 20, symbol F); assay type: in vivo, southern crabgrass (Digitaria ciliaris); details: foliage application, 320 g/ha, evaluated three weeks after application
In short: (§4)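 Plants sown in sterilized diluvial soil and grown 14 days in a greenhouse at 25° C to 30° C, then sprayed on the foliage with the compound's emulsion diluted in water to a predetermined herbicide amount. Injury to weeds and crops scored three weeks after application on a visual rating scale.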

[20] = system: green foxtail; assay: Test Example 5: herbicidal effect by foliage application, plastic box (Table 20, symbol G); assay type: in vivo, green foxtail (Setaria viridis); details: foliage application, 320 g/ha, evaluated three weeks after application
In short: as §4

[21] = system: barnyard grass; assay: Test Example 5: herbicidal effect by foliage application, plastic box (Table 20, symbol H); assay type: in vivo, barnyard grass (Echinochloa crus-galli); details: foliage application, 320 g/ha, evaluated three weeks after application
In short: as §4

[22] = system: wild oat; assay: Test Example 5: herbicidal effect by foliage application, plastic box (Table 20, symbol I); assay type: in vivo, wild oat (Avena fatua); details: foliage application, 320 g/ha, evaluated three weeks after application
In short: as §4

[23] = system: blackgrass; assay: Test Example 5: herbicidal effect by foliage application, plastic box (Table 20, symbol J); assay type: in vivo, blackgrass (Alopecurus myosuroides); details: foliage application, 320 g/ha, evaluated three weeks after application
In short: as §4

[24] = system: Italian ryegrass; assay: Test Example 5: herbicidal effect by foliage application, plastic box (Table 20, symbol K); assay type: in vivo, Italian ryegrass (Lolium multiflorum); details: foliage application, 320 g/ha, evaluated three weeks after application
In short: as §4

[25] = system: windgrass; assay: Test Example 5: herbicidal effect by foliage application, plastic box (Table 20, symbol L); assay type: in vivo, windgrass (Apera spica-venti); details: foliage application, 320 g/ha, evaluated three weeks after application
In short: as §4

[26] = system: velvetleaf; assay: Test Example 5: herbicidal effect by foliage application, plastic box (Table 20, symbol M); assay type: in vivo, velvetleaf (Abutilon theophrasti); details: foliage application, 320 g/ha, evaluated three weeks after application
In short: as §4

[27] = system: redroot pigweed; assay: Test Example 5: herbicidal effect by foliage application, plastic box (Table 20, symbol N); assay type: in vivo, redroot pigweed (Amaranthus retroflexus); details: foliage application, 320 g/ha, evaluated three weeks after application
In short: as §4

[28] = system: lambsquarters; assay: Test Example 5: herbicidal effect by foliage application, plastic box (Table 20, symbol O); assay type: in vivo, lambsquarters (Chenopodium album); details: foliage application, 320 g/ha, evaluated three weeks after application
In short: as §4

[29] = system: chickweed; assay: Test Example 5: herbicidal effect by foliage application, plastic box (Table 20, symbol P); assay type: in vivo, common chickweed (Stellaria media); details: foliage application, 320 g/ha, evaluated three weeks after application
In short: as §4

[30] = system: persian speedwell; assay: Test Example 5: herbicidal effect by foliage application, plastic box (Table 20, symbol R); assay type: in vivo, Persian speedwell (Veronica persica); details: foliage application, 320 g/ha, evaluated three weeks after application
In short: as §4

## COc1ccccc1-c1sc2ccc(C#C[Si](C)(C)C)cc2c1-c1c(O)c(C)nn(C)c1=O [2-188]
[1]
  Herbicidal effect on A: late watergrass (grade 0-5): 4 (Herbicidal rate of 70% or more and less than 90%)
[2]
  Herbicidal effect on B: Japanese bulrush (grade 0-5): 0 (Herbicidal rate of 5% or less (almost no effect))
[3]
  Herbicidal effect on C: oval-leafed pondweed (grade 0-5): 0 (Herbicidal rate of 5% or less (almost no effect))
[4]
  herbicidal effect on H: barnyard grass: 4 (Herbicidal rate of 70% or more and less than 90%)
[5]
  herbicidal effect on D: Chinese sprangletop: 3 (Herbicidal rate of 40% or more and less than 70%)
[6]
  herbicidal effect on E: rice flat sedge: 0 (Herbicidal rate of 5% or less (almost no effect))
[7]
  F: southern crabgrass, herbicidal effect rating: 0 (Herbicidal rate of 5% or less (almost no effect))
[8]
  G: green foxtail, herbicidal effect rating: 0 (Herbicidal rate of 5% or less (almost no effect))
[9]
  H: barnyard grass, herbicidal effect rating: 0 (Herbicidal rate of 5% or less (almost no effect))
[10]
  I: wild oat, herbicidal effect rating: 0 (Herbicidal rate of 5% or less (almost no effect))
[11]
  J: blackgrass, herbicidal effect rating: 0 (Herbicidal rate of 5% or less (almost no effect))
[12]
  K: Italian ryegrass, herbicidal effect rating: 0 (Herbicidal rate of 5% or less (almost no effect))
[13]
  L: windgrass, herbicidal effect rating: 0 (Herbicidal rate of 5% or less (almost no effect))
[14]
  M: velvetleaf, herbicidal effect rating: 0 (Herbicidal rate of 5% or less (almost no effect))
[15]
  N: redroot pigweed, herbicidal effect rating: 5 (Herbicidal rate of 90% or more (almost completely withered))
[16]
  O: lambsquarters, herbicidal effect rating: 3 (Herbicidal rate of 40% or more and less than 70%)
[17]
  P: chickweed, herbicidal effect rating: 0 (Herbicidal rate of 5% or less (almost no effect))
[18]
  R: persian speedwell, herbicidal effect rating: 0 (Herbicidal rate of 5% or less (almost no effect))
[19]
  herbicidal effect on F: southern crabgrass (criteria 0-5): 3 (Herbicidal rate of 40% or more and less than 70%)
[20]
  herbicidal effect on G: green foxtail (criteria 0-5): 0 (Herbicidal rate of 5% or less (almost no effect))
[21]
  herbicidal effect on H: barnyard grass (criteria 0-5): 1 (Herbicidal rate of 5% or more and less than 20%)
[22]
  herbicidal effect on I: wild oat (criteria 0-5): 0 (Herbicidal rate of 5% or less (almost no effect))
[23]
  herbicidal effect on J: blackgrass (criteria 0-5): 4 (Herbicidal rate of 70% or more and less than 90%)
[24]
  herbicidal effect on K: Italian ryegrass (criteria 0-5): 4 (Herbicidal rate of 70% or more and less than 90%)
[25]
  herbicidal effect on L: windgrass (criteria 0-5): 4 (Herbicidal rate of 70% or more and less than 90%)
[26]
  herbicidal effect on M: velvetleaf (criteria 0-5): 0 (Herbicidal rate of 5% or less (almost no effect))
[27]
  herbicidal effect on N: redroot pigweed (criteria 0-5): 3 (Herbicidal rate of 40% or more and less than 70%)
[28]
  herbicidal effect on O: lambsquarters (criteria 0-5): 2 (Herbicidal rate of 20% or more and less than 40%)
[29]
  herbicidal effect on P: chickweed (criteria 0-5): 5 (Herbicidal rate of 90% or more (almost completely withered))
[30]
  herbicidal effect on R: persian speedwell (criteria 0-5): 1 (Herbicidal rate of 5% or more and less than 20%)
